Broadly, the MIC is the smallest concentration in the dilution series that meets the test's criterion for growth inhibition. The low end stands for inhibition by little substance, the high end for a need for much substance.

The text below walks through data of ChEMBL document CHEMBL1140917, “Structure-activity relationships of antitubercular nitroimidazoles. 1. Structural features associated with aerobic and anaerobic activities of 4- and 5-nitroimidazoles” (2009).

What all share (assay type): functional
Assay [1] has as its system Mycobacterium tuberculosis. The experiment in a line: Antimycobacterial activity against Mycobacterium tuberculosis with deazaflavin-dependent nitroreductase mutant.
The subject of assay [2] is Mycobacterium tuberculosis. The experiment in a line: Antimycobacterial activity against Mycobacterium tuberculosis with cofactor F420 mutant.
The test system of assay [3] is Mycobacterium tuberculosis. The experiment in a line: Antimycobacterial activity against Mycobacterium tuberculosis with deazaflavin-dependent nitroreductase mutant under anaerobic condition.

Regarding `CO[C@@H]1COc2nc([N+](=O)[O-])cn2C1`, the MIC in assay [1] and in assay [2] was more than 100 µM in each case. Besides, the MAC in assay [3] came out at 250 µM.
For `COc1ncc([N+](=O)[O-])n1CCO`, the MIC in assay [1] and in assay [2] was more than 100 µM in each case. The compound also showed an MAC in assay [3] of more than 500 µM.
For `O=[N+]([O-])c1cnc2n1C[C@H](OCc1ccc(OC(F)(F)F)cc1)CO2`, the MIC in assay [1] and in assay [2] was more than 100 µM in each case. Further, in assay [3], the MAC is 62.5 µM.
`O=[N+]([O-])c1cnc2n1C[C@@H](O)CC2`: the MIC in assay [1] and in assay [2] was more than 100 µM each time. In assay [3], this compound registered an MAC of more than 100 µM.
For the compound `O=[N+]([O-])c1cn2c(n1)OC[C@@H](O)C2`, the MIC in assay [1] and in assay [2] was more than 100 µM each time. Moreover, the MAC in assay [3] is 500 µM.
Turning to `COc1nc([N+](=O)[O-])cn1CCOCc1ccc(OC(F)(F)F)cc1`, the MIC in assay [1] and in assay [2] was more than 100 µM each time. This compound came in with an MAC in assay [3] of 250 µM.
Consider `O=[N+]([O-])c1cnc2n1C[C@H](O)CO2`, for which the MIC in assay [1] and in assay [2] was more than 100 µM in each case. The same compound registered an MAC in assay [3] of 125 µM.
Turning to `Cc1ncc([N+](=O)[O-])n1CCOCc1ccc(OC(F)(F)F)cc1`, the MIC in assay [1] and in assay [2] was more than 100 µM each time. In assay [3], this compound yielded an MAC of 125 µM.
`O=[N+]([O-])c1cn2c(n1)C=C[C@@H](OCc1ccc(OC(F)(F)F)cc1)C2`: the MIC in assay [1] and in assay [2] was more than 100 µM throughout. Also, in assay [3], the MAC is 62.5 µM.
Take `Cc1nc([N+](=O)[O-])cn1CCOCc1ccc(OC(F)(F)F)cc1`: the MIC in assay [1] and in assay [2] was more than 100 µM in each case. This compound also yielded an MAC in assay [3] of more than 500 µM.
With `O=[N+]([O-])c1cn2c(n1)CC[C@@H](OCc1ccc(OC(F)(F)F)cc1)C2`, the MIC in assay [1] and in assay [2] was more than 100 µM in each case. Also, the MAC in assay [3] worked out at 250 µM.
Turning to `Cc1nc([N+](=O)[O-])cn1CCO`, the MIC in assay [1] and in assay [2] was more than 100 µM throughout. Also, the MAC in assay [3] was more than 500 µM.
Regarding `O=[N+]([O-])c1cnc2n1C[C@H](O)CC2`, the MIC in assay [1] and in assay [2] was more than 100 µM throughout. In addition, in assay [3], the MAC was more than 500 µM.
`FC(F)(F)Oc1ccc(CO[C@@H]2COc3nccn3C2)cc1`: the MIC in assay [1] and in assay [2] was more than 100 µM in each case. In assay [3], this compound registered an MAC of more than 500 µM.
With `Cc1ncc([N+](=O)[O-])n1CCO` [METRONIDAZOLE], the minimal inhibitory concentration (MIC) in assay [1] and in assay [2] was more than 100 µM in each case.
Turning to `O=[N+]([O-])c1cn2c(n1)OC[C@@H](OCc1ccc(OC(F)(F)F)cc1)C2` [PRETOMANID], the MIC in assay [1] and in assay [2] was more than 100 µM each time. For the same compound, the MAC in assay [3] is more than 500 µM.
